Data as given in patent publication US8673371B2, “Composition for treating vitiligo or canities comprising extract from sophora japonica as active ingredient” (Keimyung University Industry Academic Cooperation Foundation, priority 2010, dated 2014).

Assays:
[1] = Electron donating ability (Blois' method, DPPH)
Procedure: Electron donating ability was measured according to the Blois' method (Blois 1958). Freeze-dried powder of Sophora japonica methanol extract was dissolved in DMSO at concentrations of 100, 500 and 1,000 μg/mL. After taking 1 mL to a test tube and adding 4 mL of 4×10^−4 M DPPH solution, followed by agitating in a water bath of 60° C. for 10 seconds and allowing to stand at room temperature for 20 minutes, absorbance was measured at 525 nm. For the non-extract-treated group, 1 mL of methanol was added instead of the sample. Electron donating ability was calculated from the difference in absorbance relative to the non-treated group. The synthetic antioxidant BHT was used as positive control.

TRP-2 mRNA = assay: RT-PCR, expression of TRP-2 mRNA; format: cell-based, C57BL/6 mouse; settings: 12.5 μg/mL, Melan-a cells
Procedure: (§1) Total RNA was prepared using Trizol reagent (Invitrogen, Caylsbad, Calif.) according to the manufacturer's instructions. 5 μg of total RNA was subjected to reverse transcription with 8 μL of M-MLV RT 5× buffer, 3 μL of 10 mM dNTPs, 0.45 μL of 10,000 U RNase inhibitor, 0.3 μL of 50,000 U M-MLV reverse transcriptase (Promega, Madison, USA) and 1.5 μL of 50 pmol/μL oligo dT (Bioneer, Daejeon, Korea). Single-stranded cDNA was amplified by PCR in a reaction solution containing 4 μL of 5× green Go Taq flexi buffer, 0.4 μL of 10 mM dNTPs, 0.1 μL of 500 U Taq polymerase, 1.2 μL of 25 mM MgCl2 (Promega, Madison, USA) and 0.4 μL of 20 pmol/μL sense and antisense primers of tyrosinase, […] or β-actin. Sequences of the primers used in the PCR and expected PCR product size are shown in Table 1. β-actin was used as internal standard (51° C., 30 cycles), and test substances were tyrosinase (56° C., 28 cycles), TRP-1 (56° C., 28 cycles), TRP-2 (64° C., 28 cycles) and MITF-M (54° C., 30 cycles). The PCR product was analyzed by electrophoresis on 1.2% agarose gel.

TRP-1 mRNA = assay: RT-PCR, expression of TRP-1 mRNA; format: cell-based, C57BL/6 mouse; settings: 12.5 μg/mL, Melan-a cells, not significant
Procedure: as §1

MITF-M mRNA = assay: RT-PCR, expression of MITF-M mRNA; format: cell-based, C57BL/6 mouse; settings: 12.5 μg/mL, Melan-a cells
Procedure: as §1

tyrosinase mRNA = assay: RT-PCR, expression of tyrosinase mRNA; format: cell-based, C57BL/6 mouse; settings: 12.5 μg/mL, Melan-a cells
Procedure: as §1

tyrosinase [2] = assay: Intracellular tyrosinase activity; format: cell-based, C57BL/6 mouse; settings: 12.5 μg/mL, Melan-a cells
Procedure: 4-5. […] Then, after removing the medium and washing with PBS, the cells were lysed by adding 200 μL of 1% Triton X-100 solution. The lysed cells were transferred to an e-tube and vortexed on ice with 10-minute intervals. After about 1 hour, centrifuge was carried out at 4° C. and 14,000 rpm for 20 minutes. The supernatant was subjected to tyrosinase activity measurement. Absorbance was measured using a protein assay solution (Bio-Rad, USA), and the protein quantity was calculated. Cell extract containing 40 μg of protein was mixed with the test substance to a total volume of 100 μL. After adding 100 μL of L-DOPA, followed by incubation in a 10% CO2 incubator at 37° C. for 60 minutes, absorbance was measured at 490 nm. IBMX was used as positive control.

Melan-a cells [3] = settings: mouse, 48 h
Procedure: Melan-a cells, which are immortalized cells derived from C57BL/6 mouse, were cultured in a 37° C., 10% CO2 incubator using RPMI-1640 medium containing 10% fetal bovine serum (FBS) 1% penicillin/streptomycin (P/S) and 200 nM 12-O-tetradecanoylphorbol 13-acetate (TPA).
The MTT assay is a typical technique of measuring cell viability. Upon absorption into cells, 3-(4,5-Dimethylthiazol-2-yl)-2,5-diphenyltetrazolium bromide (MTT) is reduced by succinate dehydronase in mitochondria to formazan. Thus, accumulation of this substance in cells is a measure of mitochondrial activity or, in a broader sense, cell activity. Melan-a cells were stabilized in RPMI-1640 medium containing 10% FBS, 1% P/S and 200 nM TPA in a 10% CO2 incubator at 37° C. for 48 hours before carrying out experiment. The Melan-a cells were seeded on a 96 well plate (0.5×10^4 cells/well) and cultured in a 10% CO2 incubator at 37° C. for 24 hours. […] After dissolving the cells in a plate shaker for 15 minutes, absorbance was measured at 540 nm using an ELISA reader. Cell proliferation was calculated according to the following equation: Cell proliferation (%)=(Absorbance of extract-treated group/Absorbance of non-extract-treated group)×100.

Melan-a cells [4] = assay: Melanin producing ability; format: cell-based, C57BL/6 mouse; settings: 12.5 μg/mL
Procedure: Then, after treating again with the Sophora japonica methanol extract, the cells were further cultured for 72 hours. After dissolving melanin with 1 N NaOH solution, absorbance was measured at 490 nm. IBMX was used as positive control.

tyrosinase [5] = molecular target: T1, tyrosinase (Mus musculus, UniProt P11344); assay: Activity of cell-extracted tyrosinase; format: biochemical, C57BL/6 mouse; settings: 12.5 μg/mL, Melan-a cell extract
T1 construct: the cells were lysed by adding 200 μL of 1% Triton X-100 solution; endogenous in cells; host or cells: Melan-a cells (immortalized C57BL/6 mouse melanocytes)
T1 sequence (P11344 19-533): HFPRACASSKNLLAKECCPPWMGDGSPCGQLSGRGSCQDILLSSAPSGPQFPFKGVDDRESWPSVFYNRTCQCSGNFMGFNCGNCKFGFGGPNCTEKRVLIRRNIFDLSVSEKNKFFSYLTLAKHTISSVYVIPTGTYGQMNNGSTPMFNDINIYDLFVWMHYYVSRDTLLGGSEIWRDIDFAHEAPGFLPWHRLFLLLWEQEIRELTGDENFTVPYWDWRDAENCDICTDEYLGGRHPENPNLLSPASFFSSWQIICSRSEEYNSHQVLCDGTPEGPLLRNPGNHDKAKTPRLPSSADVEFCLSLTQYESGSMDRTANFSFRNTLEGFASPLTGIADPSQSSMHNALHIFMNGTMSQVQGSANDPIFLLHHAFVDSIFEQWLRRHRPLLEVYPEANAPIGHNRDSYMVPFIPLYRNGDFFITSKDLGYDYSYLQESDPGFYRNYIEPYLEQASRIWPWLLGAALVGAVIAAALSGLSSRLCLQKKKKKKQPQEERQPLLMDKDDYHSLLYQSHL
Procedure: After washing with PBS and lysing by adding 200 μL of 1% Triton X-100, the lysed cells were transferred to an e-tube and vortexed on ice with 10-minute intervals. After about 1 hour, centrifuge was carried out at 4° C. and 14,000 rpm for 20 minutes. 50 μL of the supernatant was mixed with 49 μL of 0.1 M phosphate buffer (pH 6.8) and 1 μL of Sophora japonica methanol extract at various concentrations (6.25, 12.5, 25 and 50 μg/mL). After allowing to stand for 1 hour, 100 μL of L-DOPA was added. Then, after incubation in a 10% CO2 incubator at 37° C. for 60 minutes, absorbance was measured at 490 nm. IBMX was used as positive control.

Structure (SMILES) | Electron donating ability, concentration dependence ([1]; 100, 500 and 1,000 μg/mL) | Electron donating ability ([1]; at 1,000 μg/mL) | Higher expression of TRP-2 mRNA compared with the control (TRP-2 mRNA) | Higher expression of TRP-1 mRNA compared with the control (TRP-1 mRNA) | Higher expression of MITF-M mRNA compared with the control (MITF-M mRNA) | Higher expression of tyrosinase mRNA compared with the control (tyrosinase mRNA) | Higher intracellular tyrosinase activity compared with the control (tyrosinase [2]) | Maximum permissible level (MPL) (Melan-a cells [3]) | Higher melanin content compared with the control (Melan-a cells [4]) | Higher activity of cell-extracted tyrosinase compared with the control (tyrosinase [5])
Cc1cc(C(C)(C)C)c(O)c(C(C)(C)C)c1 [BHT, 2,6-di-tert-butylated hydroxytoluene] | positive (+) concentration-dependent relationship | 85.0% |  |  |  |  |  |  |  | 
CC(C)Cn1c(=O)n(C)c(=O)c2[nH]cnc21 [IBMX, 3-isobutyl-1-methylxanthine] |  |  | 9% | 2% | 74% | 0.31% | 22.2% | 12.5 µg/mL | 16.7% | 21.2%
